Test system: male Hartley guinea pigs
Assay: Antitussive effect test: capsaicin-induced cough in guinea pigs with SO2-induced respiratory tract inflammation
Type: in vivo, guinea pig
Conditions: for Frequency of cough: capsaicin 10^-6 mol/l spray, coughs counted over 15 minutes, control group 22.4 ± 0.8; for Antitussive effect (in words): summary of Table 1, administered alone or in combination
Description: The synergetic effect of using fudosteine and an antitussive compound in combination was examined according to the following method.
Five male Hartley guinea pigs for one group, each having a weight of 300-400 g, were used as test animals. According to the method of Miyata et al. (Arch. Int. Pharmacodyn. Ther., vol. 304, p. 277, 1990), the guinea pigs were exposed to SO2 gas using an exposure apparatus for two hours a day in eight consecutive days to cause respiratory tract inflammation. The samples of which the components and dose are shown in Table 1 were orally administered before exposure to SO2 gas once a day in eight consecutive days since the start date of exposure. The guinea pigs were confined in a chamber without being anesthetized. On the date following the last SO2 exposure date, capsaicin (10^−6 mol/l) was sprayed over the chamber for two minutes using a ultrasonic nebulizer (TUR-3200, Nihon Kohden Corporation) to cause cough in the guinea pigs. […] The frequency of cough during this period was counted.

Row | SMILES | Frequency of cough (dextromethorphan 150 mg/kg orally once a day for 8 days) | Frequency of cough (dextromethorphan 300 mg/kg orally once a day for 8 days) | Antitussive effect (in words) | Frequency of cough (fudosteine 30 mg/kg orally once a day for 8 days)
1 | COc1ccc2c(c1)[C@]13CCCC[C@@H]1[C@H](C2)N(C)CC3 [Dextromethorphan] | 13.6 ± 1.0 | 10.2 ± 0.6 ^$ | exhibited an antitussive effect | 
2 | N[C@@H](CSCCCO)C(=O)O [Fudosteine, S-(3-hydroxypropyl)-L-cysteine] |  |  | did not exhibit an antitussive effect | 22.6 ± 1.1
